Consider one compound from patent publication US12685715B2, “Compositions, methods of treatment, and containers including compositions” (University of Florida Research Foundation, Inc., priority 2018, dated 2026).

The nature of data set [1]: Cysteamine degradation in anti-oxidant formulations, vials exposed to atmospheric oxygen (UV-vis). In kind it is physicochemical.
Procedure: All formulations containing hydrophilic components (SUR, CAT) were prepared by stirring at room temperature till dissolution. All formulations were tested for pH and adjusted to 7.4 if required. For each formulation, 20 mL of liquid was placed into a 22 mL, flat bottom, 28 mm diameter, glass vial (Fisher Scientific). Each formulation was purged with nitrogen gas for two hours to minimize dissolved oxygen. After purging, 2.0±0.1 mg cysteamine was added to each formulation to achieve a concentration of 0.1 mg mL^−1 which is about one-fourth of the concentration in the commercial formulation. We are interested in the relative changes in degradation rates by addition of anti-oxidants so reducing concentration will not be a significant factor. […] The vials were then left exposed to atmospheric oxygen to ensure that the degradation rates were not limited by availability of oxygen. The formulations were periodically sampled for measurement of UV spectra in 190-350 nm range (Thermo Scientific™ GENESYS™ 10S UV-Vis Spectrophotometer). The spectra of cysteamine and the oxidation product cystamine are sufficiently different so the combined spectra obtained from the samples can be separated via a least square fit to yield the concentrations of both components. After analyzing, the solution was returned to the vial to conserve total volume. […]
The nature of data set [2]: Cysteamine degradation in eye drop bottles with OMAC film barrier / combined approach, drops withdrawn periodically. Type of data set: physicochemical. The following applies: calculated, 30 μL drop.
Procedure: To explore the effect of any alterations in packaging, it was considered more realistic to use a commercial eye drop bottle. […] As these systems were in a nearly closed system, evaporation was not a concern, so they could be run for longer durations of time compared to the anti-oxidant experiments performed open to atmosphere. At certain time intervals, the screw cap was removed, and the bottle was squeezed to eject one drop. The mass of the drop was measured, and the drop was diluted 100 fold by PBS. This diluted solution was then measured by UV-vis spectrophotometry to determine the degradation of cysteamine.
Catalase (0.15%) was added to the cysteamine solution, which was nitrogen purged for an additional half hour. The solution was then placed in the bottle and topped with a 1.0 cm layer of 50% (v/v) soybean oil and 50% vitamin E. The bottle was then capped and tested for degradation of cysteamine while periodically withdrawing eye drop samples, as described in section 2.2.2.2.

With `NCCS` [cysteamine, Cysteamine], the degradation rate in data set [1] (0.1 mg mL^−1 of cysteamine) was determined as 126 ± 4 µg/h; in data set [1] (4.4 mg mL^−1 of cysteamine) it was 132 ± 15 µg/h. Further, the “degradation rate from air entering the bottle after each drop” value in data set [2] is given as “roughly 10 μg/hr”.
